Reference: US7138361B2, “Herbicidal heterocycles” (E. I. du Pont de Nemours and Company, priority 2000, dated 2006)

Tests used:
Type in all cases: in vivo
[1] = test system: lambsquarters (Chenopodium album); assay: Test B preemergence
Summary of the method: (§1)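 Seeds were planted and sprayed preemergence with test chemical in a non-phytotoxic solvent mixture containing surfactant; postemergence plants (2 to 18 cm, 1- to 4-leaf stage) received the same formulation. Greenhouse hold 13 to 15 days, then visual rating versus untreated controls on a 0–100 scale (0 no effect, 100 complete control).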

[2] = test system: Surinam grass (Brachiaria decumbens); assay: Test B preemergence
Summary of the method: as §1

corn (Zea mays) [3] = assay: Test B preemergence
Summary of the method: as §1

[4] = test system: cocklebur (Xanthium strumarium); assay: Test B preemergence
Summary of the method: as §1

[5] = test system: pigweed (Amaranthus retroflexus); assay: Test B preemergence
Summary of the method: as §1

[6] = test system: barnyardgrass (Echinochloa crus-galli); assay: Test B preemergence
Summary of the method: as §1

[7] = test system: giant foxtail (Setaria faberii); assay: Test B preemergence
Summary of the method: as §1

[8] = test system: crabgrass (Digitaria sanguinalis); assay: Test B preemergence
Summary of the method: as §1

rice (Oryza saliva) [9] = assay: Test B preemergence
Summary of the method: as §1

[10] = test system: morning glory (Ipomoea hederacea); assay: Test B preemergence
Summary of the method: as §1

[11] = test system: velvetleaf (Abutilon theophrasti); assay: Test B preemergence
Summary of the method: as §1

[12] = test system: smallflower flatsedge (Cyperus difformis); assay: Test C flooded paddy test; details: for Flatsedge plant response rating: Flooded Paddy, scale 0 to 100, 0 no effect, 100 complete control; for Plant response rating, Flatsedge: flooded paddy test, scale 0 to 100 (0 no effect, 100 complete control)
Summary of the method: (§2)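 Ratings come from visual comparison with control plants after 12 to 14 days in the greenhouse. Each species was at the 2-leaf stage when the flooded paddy was treated. Scores run from 0, meaning no effect, to 100, meaning complete control.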

[13] = test system: barnyardgrass (Echinochloa crus-galli); assay: Test C flooded paddy test; details: for Barnyardgrass plant response rating: Flooded Paddy, scale 0 to 100, 0 no effect, 100 complete control; for Plant response rating, Barnyardgrass: flooded paddy test, scale 0 to 100 (0 no effect, 100 complete control)
Summary of the method: as §2

[14] = test system: duck salad (Heteranthera limosa); assay: Test C flooded paddy test; details: for Ducksalad plant response rating: Flooded Paddy, scale 0 to 100, 0 no effect, 100 complete control; for Plant response rating, Ducksalad: flooded paddy test, scale 0 to 100 (0 no effect, 100 complete control)
Summary of the method: as §2

rice (Oryza saliva) [15] = assay: Test C flooded paddy test; details: for Rice plant response rating: Flooded Paddy, scale 0 to 100, 0 no effect, 100 complete control; for Plant response rating, Rice: flooded paddy test, scale 0 to 100 (0 no effect, 100 complete control)
Summary of the method: as §2

Nightshade = assay: Test C preemergence; details: Rate 500 g/ha, visual evaluation after 12 to 14 days
Sunflower = assay: Test C preemergence; details: scale 0 to 100, 0 no effect, 100 complete control
[16] = test system: Surinam grass (Brachiaria decumbens); assay: Test B postemergence; details: 13 to 15 days
Summary of the method: as §1

corn (Zea mays) [17] = assay: Test B postemergence; details: 13 to 15 days
Summary of the method: as §1

[18] = test system: pigweed (Amaranthus retroflexus); assay: Test B postemergence; details: 13 to 15 days
Summary of the method: as §1

[19] = test system: barnyardgrass (Echinochloa crus-galli); assay: Test B postemergence; details: 13 to 15 days
Summary of the method: as §1

[20] = test system: giant foxtail (Setaria faberii); assay: Test B postemergence; details: 13 to 15 days
Summary of the method: as §1

[21] = test system: blackgrass (Alopecurus myosuroides); assay: Test B postemergence; details: 13 to 15 days
Summary of the method: as §1

[22] = test system: morning glory (Ipomoea hederacea); assay: Test B postemergence; details: 13 to 15 days
Summary of the method: as §1

[23] = test system: velvetleaf (Abutilon theophrasti); assay: Test B postemergence; details: 13 to 15 days
Summary of the method: as §1

[24] = test system: wheat (Triticum aestivum); assay: Test B postemergence; details: 13 to 15 days
Summary of the method: as §1

[25] = Preemergence, Rate 500 g/ha, scale 0 to 100, 0 no effect, 100 complete control
[26] = preemergence, Rate 125 g/ha, scale of 0 to 100 where 0 is no effect and 100 is complete control, 13 to 15 days
[27] = Rate 125 g/ha, scale 0 (no effect) to 100 (complete control)
[28] = Rate 500 g/ha, scale 0 to 100, 0 is no effect, 100 is complete control

CCCC(C)c1ccn(C2SCN(c3cccc(C(F)(F)F)c3)C2=O)n1 (centres unmarked) [Compound 92]
30: Plant response rating, Barnyardgrass [6, 26] | Rice plant response rating (rice (Oryza saliva) [15]; Rate 250 g/ha) | Rice plant response rating (rice (Oryza saliva) [15]; Rate 500 g/ha) | Plant response rating, Foxtail, Giant [20, 28]
70: Plant response rating, Surinam grass [2, 25] | Plant response rating, Barnyardgrass [19, 28]
50: Plant response rating, Foxtail, Giant [7, 26] | Plant response rating, Crabgrass [8, 26] | Plant response rating, Barnyardgrass ([13]; Rate 62 g/ha) | Plant response rating, Morningglory [22, 28]
100: Plant response rating, Lambsquarters [1, 25] | Plant response rating, Lambsquarters [1, 26] | Plant response rating, Pigweed [5, 25] | Plant response rating, Barnyardgrass [6, 25] | Plant response rating, Foxtail, Giant [7, 25] | Plant response rating, Crabgrass [8, 25] | Flatsedge plant response rating ([12]; Rate 250 g/ha) | Flatsedge plant response rating ([12]; Rate 500 g/ha) | Plant response rating, Flatsedge ([12]; Rate 125 g/ha) | Barnyardgrass plant response rating ([13]; Rate 250 g/ha) | Barnyardgrass plant response rating ([13]; Rate 500 g/ha) | Plant response rating, Barnyardgrass ([13]; Rate 125 g/ha) | Ducksalad plant response rating ([14]; Rate 250 g/ha) | Ducksalad plant response rating ([14]; Rate 500 g/ha) | Plant response rating, Ducksalad ([14]; Rate 125 g/ha)
90: Plant response rating, Flatsedge ([12]; Rate 62 g/ha)
10: Plant response rating, Surinam grass [16, 28] | Plant response rating, Corn (corn (Zea mays) [17]; [28])
20: Plant response rating, Velvetleaf [23, 28]
60: Plant response rating, Pigweed [18, 28]
40: Plant response rating, Sunflower (Sunflower; Rate 250 g/ha)
0: Plant response rating, Surinam grass [2, 26] | Plant response rating, Corn (corn (Zea mays) [3]; [25]) | Plant response rating, Corn (corn (Zea mays) [3]; [26]) | Plant response rating, Cocklebur [4, 25] | Plant response rating, Cocklebur [4, 26] | Plant response rating, Rice (rice (Oryza saliva) [9]; [25]) | Plant response rating, Rice (rice (Oryza saliva) [9]; [26]) | Plant response rating, Morningglory [10, 25] | Plant response rating, Morningglory [10, 26] | Plant response rating, Velvetleaf [11, 25] | Plant response rating, Velvetleaf [11, 26] | Plant response rating, Rice (rice (Oryza saliva) [15]; Rate 62 g/ha) | Plant response rating, Rice (rice (Oryza saliva) [15]; Rate 125 g/ha) | Plant response rating, Surinam grass [16, 27] | Plant response rating, Corn (corn (Zea mays) [17]; [27]) | Plant response rating, Barnyardgrass [19, 27] | Plant response rating, Foxtail, Giant [20, 27] | Plant response rating, Blackgrass [21, 27] | Plant response rating, Blackgrass [21, 28] | Plant response rating, Wheat [24, 28]
80: Plant response rating, Pigweed [5, 26] | Plant response rating, Ducksalad ([14]; Rate 62 g/ha) | Plant response rating (0 to 100), Nightshade (Nightshade)

CC1(c2ccn(C3SCN(c4cccc(OC(F)(F)F)c4)C3=O)n2)CC1 (centres unmarked) [Compound 63]
40: Plant response rating, Barnyardgrass ([13]; Rate 125 g/ha) | Rice plant response rating (rice (Oryza saliva) [15]; Rate 250 g/ha) | Rice plant response rating (rice (Oryza saliva) [15]; Rate 500 g/ha) | Plant response rating, Sunflower (Sunflower; Rate 250 g/ha) | Plant response rating, Morningglory [22, 28]
0: Plant response rating, Surinam grass [2, 26] | Plant response rating, Corn (corn (Zea mays) [3]; [25]) | Plant response rating, Corn (corn (Zea mays) [3]; [26]) | Plant response rating, Cocklebur [4, 25] | Plant response rating, Cocklebur [4, 26] | Plant response rating, Crabgrass [8, 26] | Plant response rating, Rice (rice (Oryza saliva) [9]; [25]) | Plant response rating, Rice (rice (Oryza saliva) [9]; [26]) | Plant response rating, Morningglory [10, 25] | Plant response rating, Morningglory [10, 26] | Plant response rating, Velvetleaf [11, 25] | Plant response rating, Velvetleaf [11, 26] | Plant response rating, Rice (rice (Oryza saliva) [15]; Rate 62 g/ha) | Plant response rating, Sunflower (Sunflower; Rate 125 g/ha) | Plant response rating, Surinam grass [16, 27] | Plant response rating, Surinam grass [16, 28] | Plant response rating, Corn (corn (Zea mays) [17]; [27]) | Plant response rating, Corn (corn (Zea mays) [17]; [28]) | Plant response rating, Barnyardgrass [19, 27] | Plant response rating, Foxtail, Giant [20, 27] | Plant response rating, Blackgrass [21, 27] | Plant response rating, Blackgrass [21, 28] | Plant response rating, Morningglory [22, 27] | Plant response rating, Velvetleaf [23, 27] | Plant response rating, Wheat [24, 27] | Plant response rating, Wheat [24, 28]
60: Plant response rating, Barnyardgrass [19, 28]
50: Plant response rating, Barnyardgrass [6, 26] | Plant response rating, Foxtail, Giant [7, 26] | Plant response rating, Pigweed [18, 27] | Plant response rating, Foxtail, Giant [20, 28] | Plant response rating, Velvetleaf [23, 28]
100: Plant response rating, Lambsquarters [1, 25] | Plant response rating, Lambsquarters [1, 26] | Plant response rating, Pigweed [5, 25] | Plant response rating, Pigweed [5, 26] | Plant response rating, Crabgrass [8, 25] | Flatsedge plant response rating ([12]; Rate 250 g/ha) | Flatsedge plant response rating ([12]; Rate 500 g/ha) | Plant response rating, Flatsedge ([12]; Rate 125 g/ha) | Barnyardgrass plant response rating ([13]; Rate 500 g/ha) | Ducksalad plant response rating ([14]; Rate 500 g/ha) | Plant response rating (0 to 100), Nightshade (Nightshade)
20: Plant response rating, Barnyardgrass ([13]; Rate 62 g/ha) | Plant response rating, Ducksalad ([14]; Rate 62 g/ha) | Plant response rating, Ducksalad ([14]; Rate 125 g/ha) | Plant response rating, Rice (rice (Oryza saliva) [15]; Rate 125 g/ha)
30: Plant response rating, Surinam grass [2, 25]
90: Plant response rating, Barnyardgrass [6, 25] | Plant response rating, Foxtail, Giant [7, 25] | Plant response rating, Flatsedge ([12]; Rate 62 g/ha)
70: Barnyardgrass plant response rating ([13]; Rate 250 g/ha) | Plant response rating, Pigweed [18, 28]
80: Ducksalad plant response rating ([14]; Rate 250 g/ha)
